Data from US20230073855A1, “SOFT GEL CAPSULE COMPRISING A SELECTIVE ESTROGEN RECEPTOR MODULATOR” (PHARMATHEN S.A., priority 2018, published 2023).
≈ marks a conversion by molar mass, not a printed value.

How the values were obtained:
[1] = physchem; conditions: thermodynamic from solid
Description: (§1) In order to investigate drug solubility in SMEDDS, excess amount of drug was added to few mL of each excipient, placed in small bottles and the mixture was vortexed, in room temperature to facilitate solubilization.
Tween 80® and Tween 20® were used as surfactants, Transcutol® along with PG 200 and PEG 600 were used as co-surfactants.

[2] = cited from earlier work
[3] = physchem; conditions: oil or lipid, thermodynamic from solid, Dubcare GPE 810 ®/(Tween 80 ®/PEG 600)
Description: as §1
The solubility of Dubcare GPR 810® in different oil/(S/CS) was tested. […] The S/CS ration was kept constant at 1/1.

[4] = physchem; conditions: thermodynamic from solid; remark: listed apart in the source
Description: The solubility is calculated by the API quantity dissolved in 5 mL of each excipient.

For `OCCOc1ccc(/C(=C(/CCCl)c2ccccc2)c2ccccc2)cc1` [Ospemifene], the solubility ([1]; organic solvent or mixture, Tween 20 ®/Transcutol ®, ratio S/CS 1:1) was 210 mg/mL, the solubility ([1]; organic solvent or mixture, Tween 20 ®/Transcutol ®, ratio S/CS 1:2) was 240 mg/mL and the solubility ([1]; organic solvent or mixture, Tween 20 ®/Transcutol ®, ratio S/CS 2:1) was 190 mg/mL. For the same molecule, the solubility ([1]; surfactant/co-surfactant mixture Tween 20/PG 200, S/CS 1:1, organic solvent or mixture, Tween 20 ®/PG 200, ratio S/CS 1:1) was 110 mg/mL, the solubility ([1]; surfactant/co-surfactant mixture Tween 20/PG 200, S/CS 1:2, organic solvent or mixture, Tween 20 ®/PG 200, ratio S/CS 1:2) was 120 mg/mL and the solubility ([1]; surfactant/co-surfactant mixture Tween 20/PG 200, S/CS 2:1, organic solvent or mixture, Tween 20 ®/PG 200, ratio S/CS 2:1) was 120 mg/mL. The solubility ([1]; surfactant/co-surfactant mixture Tween 20/PG 600, S/CS 1:1, organic solvent or mixture, Tween 20 ®/PG 600, ratio S/CS 1:1) was 140 mg/mL, the solubility ([1]; surfactant/co-surfactant mixture Tween 20/PG 600, S/CS 1:2, organic solvent or mixture, Tween 20 ®/PG 600, ratio S/CS 1:2) was 140 mg/mL and the solubility ([1]; surfactant/co-surfactant mixture Tween 20/PG 600, S/CS 2:1, organic solvent or mixture, Tween 20 ®/PG 600, ratio S/CS 2:1) was 140 mg/mL. The solubility ([1]; surfactant/co-surfactant mixture Tween 80/PEG 600, S/CS 1:1, organic solvent or mixture, Tween 80 ®/PEG 600, ratio S/CS 1:1) was 140 mg/mL, the solubility ([1]; surfactant/co-surfactant mixture Tween 80/PEG 600, S/CS 1:2, organic solvent or mixture, Tween 80 ®/PEG 600, ratio S/CS 1:2) was 120 mg/mL and the solubility ([1]; surfactant/co-surfactant mixture Tween 80/PEG 600, S/CS 2:1, organic solvent or mixture, Tween 80 ®/PEG 600, ratio S/CS 2:1) was 140 mg/mL. For the same molecule, the “Time to peak median serum concentration” value ([2]; fasting postmenopausal women) was “approximately two”, the “Increase of bioavailability with food intake” value ([2]; with food intake, EP1713458) was “two- to three” and the solubility ([3]; ratio oil/(S/CS) 1:9, S/CS 1/1) was 160 mg/mL. For the same molecule, the solubility ([3]; ratio oil/(S/CS) 2:8, S/CS 1/1) was 150 mg/mL, the solubility ([3]; ratio oil/(S/CS) 3:7, S/CS 1/1) was 150 mg/mL and the solubility ([3]; ratio oil/(S/CS) 7:3, S/CS 1/1) was 80 mg/mL. It also gave a solubility ([3]; ratio oil/(S/CS) 8:2, S/CS 1/1) of 60 mg/mL, a solubility ([4]; Castor oil #1 (neat excipient), oil or lipid, in Castor oil #1, room temperature) of 60 mg/mL (≈ 158 mM) and a solubility ([4]; Castor oil #2 (neat excipient), oil or lipid, in Castor oil #2, room temperature) of 60 mg/mL (≈ 158 mM). The solubility ([4]; Dubcare GPE 810 (neat excipient), organic solvent or mixture, in Dubcare GPE 810 ®, room temperature) was 180 mg/mL (≈ 475 mM), the solubility ([4]; Ethyl Oleate (neat excipient), oil or lipid, in Ethyl Oleate, room temperature) was 20 mg/mL (≈ 52.8 mM) and the solubility ([4]; Isopropyl myristate (neat excipient), oil or lipid, in Isopropyl myristate, room temperature) was 150 mg/mL (≈ 396 mM). It also gave a solubility ([4]; Labrafac Lipophile (neat excipient), oil or lipid, in Labrafac Lipophile ®, room temperature) of 100 mg/mL (≈ 264 mM), a solubility ([4]; Miglyol 812 (neat excipient), oil or lipid, in Miglyol 812, room temperature) of 60 mg/mL (≈ 158 mM) and a solubility ([4]; Oleic acid (neat excipient), oil or lipid, in Oleic acid, room temperature) of 10 mg/mL (≈ 26.4 mM). For the same molecule, the solubility ([4]; Propylene glycol (neat excipient), organic solvent or mixture, in Propylene glycol, room temperature) was 50 mg/mL (≈ 132 mM), the solubility ([4]; Sesame oil (neat excipient), oil or lipid, in Sesame oil, room temperature) was 60 mg/mL (≈ 158 mM) and the solubility ([4]; Transcutol (neat excipient), organic solvent or mixture, in Transcutol ®, room temperature) was 280 mg/mL (≈ 739 mM). It also gave a solubility ([4]; Tween 20 (neat excipient), organic solvent or mixture, in Tween 20 ®, room temperature) of 150 mg/mL (≈ 396 mM), a solubility ([4]; Tween 80 (neat excipient), organic solvent or mixture, in Tween 80 ®, room temperature) of 100 mg/mL (≈ 264 mM) and a solubility ([4]; Tyloxapol (neat excipient), organic solvent or mixture, in Tyloxapol, room temperature) of 140 mg/mL (≈ 369 mM). The solubility ([4]; organic solvent or mixture, in Kolliphpor ® RH40, room temperature) was 180 mg/mL (≈ 475 mM), the solubility ([4]; organic solvent or mixture, in PG 200, room temperature) was 100 mg/mL (≈ 264 mM) and the solubility ([4]; organic solvent or mixture, in PG 600, room temperature) was 160 mg/mL (≈ 422 mM).
